Source: patent US12377110B2, “Fospropofol methods and compositions” (Epalex Corporation, priority 2019, dated 2025)

Experiments:
[1] = Study No. 15-3 (GLP): 14-day once daily oral gavage toxicity of fospropofol disodium; format: in vivo, Sprague-Dawley rats; settings: both sexes, rat, in vivo; 14 days once daily oral gavage, Sprague-Dawley rats
Procedure: (§1) The purpose of Study No. 15-3 (GLP) was to determine the potential toxicity of fospropofol in Sprague-Dawley rats when administered once daily by oral gavage for 14 days. […] The cause of death for the three 250 mg/kg/day group main study females found dead could not be determined, but was considered related to the pharmacodynamic effects of fospropofol, based on the time of death relative to the time of close administration, and the clinical signs recorded before death. Clinical observations during the closing period for these animals included labored breathing, prostrate, splayed hindlimbs, uncoordinated movement, decreased activity, and eyes closed.
(§2) Pivotal GLP 14-day repeat-close toxicity studies with 7-day recovery periods were conducted in Sprague-Dawley rats (Study No. 15-3) and Beagle dogs (Study No. 15-4). […] The cause of death for these animals was considered to be related to the known pharmacodynamic effects of high doses of fospropofol, based on the time of death relative to the time of close administration, and the clinical signs recorded before death which included: labored breathing, prostrate, splayed hindlimbs, uncoordinated movement, decreased activity, and eyes closed. […] The NOAEL was determined to be 100 mg/kg/day (600 mg/m^2/day) in male and female Sprague-Dawley rats.

Sprague-Dawley rats = test: as above; format: in vivo
Procedure: as §1, §2

**Q.** What does the source list for CC(C)c1cccc(C(C)C)c1OCOP(=O)([O-])O.[Na+] [fospropofol disodium]?
**A.** NOAEL at 14 days [1]: 100 mg/kg/day; Mortality (Sprague-Dawley rats; 0, 50, 100, and 250 mg/kg/day for 14 consecutive days): treatment-related mortalities at 250 mg/kg/day; Body weight gain (Sprague-Dawley rats; 250 mg/kg/day): reduced body weight gain; Prothrombin time (Sprague-Dawley rats; 250 mg/kg/day): transient increase in prothrombin time; Gross observations and microscopic findings (Sprague-Dawley rats; 250 mg/kg/day main study females found dead): no treatment-related gross observations or microscopic findings; NOAEL (Sprague-Dawley rats; 14 days once daily oral gavage, Sprague-Dawley rats): 600 mg/m^2/day; Mortalities (Sprague-Dawley rats; high dose level (250 mg/kg/day), 14 days): 4; Histopathology, all tissues including GIT-related (Sprague-Dawley rats; up to 250 mg/kg/day): no treatment-related histopathology findings
